{"source": "paper PMC4259467", "about": "“Molecular Cloning, Characterization and Positively Selected Sites of the Glutathione S-Transferase Family from Locusta migratoria” (PLoS ONE, 2014)", "test_in_all_cases": "spectrophotometric GST assay, steady state", "type_in_all_cases": "biochemical", "details_in_all_cases": "co-substrate GSH; pH and temperature not given; read-out: K m ^CDNB", "key": {"[1]": {"molecular_target": "T1, LmGSTD4 (Locusta migratoria, UniProt V9Q2Q3)", "T1 construct": "gene GSTd4; full-length ORF in pET28a, E. coli BL21(DE3), His-tag Ni-NTA purified", "T1 sequence (V9Q2Q3 1-218)": "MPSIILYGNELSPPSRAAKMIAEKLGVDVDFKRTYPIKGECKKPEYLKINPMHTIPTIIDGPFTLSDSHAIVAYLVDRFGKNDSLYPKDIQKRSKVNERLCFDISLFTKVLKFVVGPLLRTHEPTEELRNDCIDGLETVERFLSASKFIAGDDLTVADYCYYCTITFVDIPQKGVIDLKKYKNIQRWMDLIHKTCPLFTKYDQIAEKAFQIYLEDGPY", "text": "spectrophotometric GST assay, steady state on LmGSTD4"}, "[2]": {"molecular_target": "T2, LmGSTD2 (Locusta migratoria, UniProt V9Q3Y3)", "T2 construct": "gene GSTd2; full-length ORF in pET28a, E. coli BL21(DE3), His-tag Ni-NTA purified", "T2 sequence (V9Q3Y3 1-214)": "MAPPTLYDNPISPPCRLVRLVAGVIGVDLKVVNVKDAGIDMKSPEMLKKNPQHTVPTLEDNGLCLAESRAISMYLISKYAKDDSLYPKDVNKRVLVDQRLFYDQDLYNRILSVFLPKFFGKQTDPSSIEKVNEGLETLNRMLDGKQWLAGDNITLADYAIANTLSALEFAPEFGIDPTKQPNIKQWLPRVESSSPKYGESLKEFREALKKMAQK", "text": "spectrophotometric GST assay, steady state on LmGSTD2"}, "[3]": {"molecular_target": "T3, LmGSTS10 (Locusta migratoria, UniProt V9Q3X5)", "T3 construct": "gene GSTs10; full-length ORF in pET28a, E. coli BL21(DE3), His-tag Ni-NTA purified", "T3 sequence (V9Q3X5 1-204)": "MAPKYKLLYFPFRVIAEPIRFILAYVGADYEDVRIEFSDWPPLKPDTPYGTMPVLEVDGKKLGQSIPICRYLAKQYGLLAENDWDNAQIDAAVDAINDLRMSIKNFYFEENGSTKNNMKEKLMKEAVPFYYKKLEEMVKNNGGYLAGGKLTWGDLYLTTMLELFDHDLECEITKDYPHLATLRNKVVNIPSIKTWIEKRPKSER", "text": "spectrophotometric GST assay, steady state on LmGSTS10"}, "[4]": {"molecular_target": "T4, LmGSTS8 (Locusta migratoria, UniProt V9Q487)", "T4 construct": "gene GSTs8; full-length ORF in pET28a, E. coli BL21(DE3), His-tag Ni-NTA purified", "T4 sequence (V9Q487 1-204)": "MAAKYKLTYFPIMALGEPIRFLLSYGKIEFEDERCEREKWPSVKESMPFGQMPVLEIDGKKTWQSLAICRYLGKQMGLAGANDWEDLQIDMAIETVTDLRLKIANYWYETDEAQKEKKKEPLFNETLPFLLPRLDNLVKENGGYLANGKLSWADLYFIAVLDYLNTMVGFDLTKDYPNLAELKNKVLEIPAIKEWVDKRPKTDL", "text": "spectrophotometric GST assay, steady state on LmGSTS8"}, "[5]": {"molecular_target": "T5, LmGSTT1 (Locusta migratoria, UniProt F4YUJ7)", "T5 construct": "full-length ORF in pET28a, E. coli BL21(DE3), His-tag Ni-NTA purified", "T5 sequence (F4YUJ7 1-231)": "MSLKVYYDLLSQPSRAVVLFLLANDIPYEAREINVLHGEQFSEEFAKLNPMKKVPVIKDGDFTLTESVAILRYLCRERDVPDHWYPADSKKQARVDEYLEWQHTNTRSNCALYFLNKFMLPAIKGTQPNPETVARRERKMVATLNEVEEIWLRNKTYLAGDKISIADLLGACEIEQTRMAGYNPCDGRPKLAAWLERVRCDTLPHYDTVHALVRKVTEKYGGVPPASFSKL", "text": "spectrophotometric GST assay, steady state on LmGSTT1"}, "[6]": {"molecular_target": "T6, LmGSTD1 (Locusta migratoria, UniProt E7BTM5)", "T6 construct": "full-length ORF in pET28a, E. coli BL21(DE3), His-tag Ni-NTA purified", "T6 sequence (E7BTM5 1-218)": "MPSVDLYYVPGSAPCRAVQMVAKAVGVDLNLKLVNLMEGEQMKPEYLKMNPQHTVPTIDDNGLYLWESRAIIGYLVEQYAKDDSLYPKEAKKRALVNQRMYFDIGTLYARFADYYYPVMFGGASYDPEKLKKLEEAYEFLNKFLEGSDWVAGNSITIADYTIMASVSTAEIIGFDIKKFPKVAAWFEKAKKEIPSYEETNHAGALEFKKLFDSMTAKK", "text": "spectrophotometric GST assay, steady state on LmGSTD1"}, "[7]": {"molecular_target": "T7, LmGSTE4 (Locusta migratoria, UniProt V9Q318)", "T7 construct": "gene GSTe4; full-length ORF in pET28a, E. coli BL21(DE3), His-tag Ni-NTA purified", "T7 sequence (V9Q318 1-221)": "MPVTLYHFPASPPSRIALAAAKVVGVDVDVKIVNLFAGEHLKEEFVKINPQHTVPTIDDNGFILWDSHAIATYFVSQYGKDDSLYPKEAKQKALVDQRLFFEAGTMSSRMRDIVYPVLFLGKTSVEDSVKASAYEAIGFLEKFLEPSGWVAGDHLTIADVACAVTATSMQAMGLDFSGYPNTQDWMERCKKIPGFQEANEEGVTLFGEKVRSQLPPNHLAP", "text": "spectrophotometric GST assay, steady state on LmGSTE4"}, "[8]": {"molecular_target": "T8, LmGSTE5 (Locusta migratoria, UniProt V9Q3X9)", "T8 construct": "gene GSTe5; full-length ORF in pET28a, E. coli BL21(DE3), His-tag Ni-NTA purified", "T8 sequence (V9Q3X9 1-221)": "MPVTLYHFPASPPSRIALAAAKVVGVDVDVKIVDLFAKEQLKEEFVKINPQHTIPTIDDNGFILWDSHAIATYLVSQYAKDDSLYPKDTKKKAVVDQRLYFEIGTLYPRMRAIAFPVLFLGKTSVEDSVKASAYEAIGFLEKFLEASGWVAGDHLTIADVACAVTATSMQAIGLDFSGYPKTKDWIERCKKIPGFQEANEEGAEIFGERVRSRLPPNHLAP", "text": "spectrophotometric GST assay, steady state on LmGSTE5"}, "[9]": {"molecular_target": "T9, LmGSTD5 (Locusta migratoria, UniProt V9Q4A2)", "T9 construct": "gene GSTd5; full-length ORF in pET28a, E. coli BL21(DE3), His-tag Ni-NTA purified", "T9 sequence (V9Q4A2 1-224)": "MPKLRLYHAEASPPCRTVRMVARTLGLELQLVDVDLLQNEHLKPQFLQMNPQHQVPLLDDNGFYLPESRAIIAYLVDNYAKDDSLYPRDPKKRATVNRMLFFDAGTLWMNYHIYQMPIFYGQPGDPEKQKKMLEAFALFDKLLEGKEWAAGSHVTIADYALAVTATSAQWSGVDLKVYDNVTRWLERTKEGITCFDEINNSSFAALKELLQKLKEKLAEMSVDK", "text": "spectrophotometric GST assay, steady state on LmGSTD5"}, "[10]": {"molecular_target": "T10, LmGSTS9 (Locusta migratoria, UniProt V9Q315)", "T10 construct": "gene GSTs9; full-length ORF in pET28a, E. coli BL21(DE3), His-tag Ni-NTA purified", "T10 sequence (V9Q315 1-204)": "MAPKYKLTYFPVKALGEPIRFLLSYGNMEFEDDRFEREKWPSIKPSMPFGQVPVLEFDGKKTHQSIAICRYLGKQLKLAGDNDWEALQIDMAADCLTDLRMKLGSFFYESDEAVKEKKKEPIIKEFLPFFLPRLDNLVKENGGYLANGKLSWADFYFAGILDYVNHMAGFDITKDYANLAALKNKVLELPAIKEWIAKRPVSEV", "text": "spectrophotometric GST assay, steady state on LmGSTS9"}}}
{"smiles": "O=[N+]([O-])c1ccc(Cl)c([N+](=O)[O-])c1", "note": "[CDNB]", "values": [{"measurement": "Km", "setting": "[1]", "value": "15 ± 2", "unit": "µM"}, {"measurement": "Km", "setting": "[2]", "value": "923 ± 49", "unit": "µM"}, {"measurement": "Km", "setting": "[3]", "value": "311 ± 18", "unit": "µM"}, {"measurement": "Km", "setting": "[4]", "value": "100 ± 6", "unit": "µM"}, {"measurement": "Km", "setting": "[5]", "value": "260 ± 14", "unit": "µM"}, {"measurement": "Km", "setting": "[6]", "value": "139 ± 8", "unit": "µM"}, {"measurement": "Km", "setting": "[7]", "value": "102 ± 8", "unit": "µM"}, {"measurement": "Km", "setting": "[8]", "value": "26 ± 2", "unit": "µM"}, {"measurement": "Km", "setting": "[9]", "value": "21 ± 1", "unit": "µM"}, {"measurement": "Km", "setting": "[10]", "value": "351 ± 26", "unit": "µM"}]}
